This is an account of results in article PMC9503778, “Targeted Isolation of Antibiotic Brominated Alkaloids from the Marine Sponge Pseudoceratina durissima Using Virtual Screening and Molecular Networking” (Marine Drugs, 2022).

The structures appear in SMILES notation. pIC50: −log10 of the molar value. Values after ≈ are worked out from the molar mass of the structure shown. Values joined by “and” are separate entries in the source; they are usually repeats but may differ in a detail not shown here. Equal values may be shown once. Read-outs that look alike come from different tables or passages of the source.

Data set [1] has as its system C. albicans (yeast) ATCC 90028. In words: Antimicrobial growth inhibition (CO-ADD), C. albicans. Particulars: for MIC / inhibition at 32 µg/mL: Candida albicans; for % inhibition C. albicans: 32 µg/mL, duplicate (n = 2) values; for inhibition at 32 µg/mL: ATCC90028, read-out: % inhibition C. albicans, 32 µg/mL, duplicate (n = 2) values. Type of data set: cell-based, Candida albicans. On the procedure:
Compounds 1−3 and 5−12 were assayed against a selection of medically important pathogenic microorganisms (MRSA, E. coli, K. pneumoniae, A. baumanii, P. aeruginosa, C. albicans, C. neoformans), Table 4. […] To the best of our knowledge this compound had not been tested against any drug resistant strain of Gram-positive bacterium until this study.
The antimicrobial activity testing was performed by the Community for Antimicrobial Drug Discovery (CO-ADD). Compounds were assayed against a range of both Gram negative and Gram positive bacteria (see Supplementary Materials S3) including methicillin-resistant Staphylococcus aureus (MRSA) (G+), Escherichia coli (G-), Klebsiella pneumoniae (G-), Acinetobacter baumannii (G-), Pseudomonas aeruginosa (G-) together with two species of fungus (Candida albicans and Cryptococcus neoformans).
S3. Antimicrobial activity testing methodology
The compounds submitted to CO-ADD were evaluated in duplicate (n = 2) against seven microorganisms (five bacteria and two fungi) at a concentration of 32 µg/mL in a 384-well, non-binding surface plate (NBS) for each bacterial/fungal strain, keeping the final DMSO concentration to a maximum of 1% DMSO. All bacteria were cultured in cation-adjusted […]
Fungal strains were cultured for 3 days on Yeast Extract-Peptone Dextrose (YPD) agar at 30 °C. A yeast suspension of 1 x 10^6 to 5 x 10^6 CFU/mL (as determined by OD530) was prepared from five colonies. The suspension was subsequently diluted and added to each well of the compound-containing plates giving a final cell density of fungi suspension of 2.5 x 10^3 CFU/mL and a total volume of 50 µL. All plates were covered and incubated at 35 °C for 24 h without shaking. […]
2 h. The absorbance was measured using a Biotek Synergy HTX plate reader. The percentage of growth inhibition was calculated for each well, using negative control (medium only) and positive control (bacteria without inhibitors) on the same plate as the references. The significance of inhibition values was determined by modified Z-scores, calculated using the median and MAD of the samples (no controls) on the same plate. Samples with inhibition value above 80% and Z-score above 2.5 for either replicate (n = 2 on different plates) were classed as actives.
Colistin and vancomycin were used as positive bacterial inhibitor standards for Gram-negative and Gram-positive bac-teria, respectively. Fluconazole was used as a positive fungal inhibitor standard for C. albicans and C. neoformans. The antibiotics were provided in four concentrations, with two above and two below its MIC value, and plated into the first eight wells of column 23 of the 384-well NBS plates. The quality control (QC) of the assays was determined by the antimicrobial controls and the Z’-factor (using positive and negative controls). Each plate was deemed to fulfil the qual- […]
full growth inhibition at their highest concentration, and no growth inhibition at their lowest concentration. The seven […]
test microorganisms were Staphylococcus aureus MRSA (ATCC 43300), Escherichia coli (ATCC 25922), Klebsiella pneu-moniae (ATCC 700603), Acinetobacter baumanii (ATCC19606), Pseudomonas aeruginosa (ATCC 27853), Candida albicans (ATCC 90028) and Cryptococcus neoformans var. grubii (H99; ATCC 208821).
S4. Anthelmintic activity testing methodology
Dose-response evaluations were carried out to estimate the half-maximal inhibitory concentrations (IC50 values) for compounds against Haemonchus contortus (Haecon-5 strain) exsheathed third-stage larvae (xL3s). H. contortus were maintained in experimental sheep and procured in accordance with the institutional animal ethics guidelines and the regulations of Australia (permit no. 1714374; University of Melbourne). Immediately prior to use, third-stage larvae (L3s) were exsheathed and sterilised by incubation in 0.15% (v/v) bleach at 38 °C for 20 min, followed by washes in sterile saline at room temperature (22-24 °C). […]

For data set [2], the system named is zebrafish (Danio rerio) larvae at 5 dpf. In words: Zebrafish larvae spontaneous, unstimulated swimming bioassay. Type of data set: in vivo. Conditions: for Spontaneous swimming, mean distance moved: 10 nM and 100 nM, compared with 1 nM. How it is done: (§1) For the zebrafish bioactivity assay, three experiments were performed on 5 days post fertilization (dpf) zebrafish larvae treated with methanol crude extracts from all four sponge specimens, using total distance moved as an endpoint metric. Spontaneous swimming experiments were performed according to the following protocol: allowing a 2 min acclimatization period in darkness followed by a 5 min darkness swimming period, where total distance moved was measured. Simulated predator response (SPR) experiments were performed involving a 2 min acclimatization period in light conditions, followed by 3 min in light free swimming and a measurement period of 3 mins in dark. Finally, a Larval Photo-motor Response (LPR) experiment was conducted beginning with 2 mins light acclimatization followed by three cycles of alternating photic stimulus (each cycle consisting of 4 min light –4 min dark conditions to assess the profile of the treatment across time, Figure 8.
(§2) Basal behavioral analysis was conducted on zebrafish (Danio rerio) larvae at 5 dpf using an in-house custom-built behavioral analysis system. All assays followed standard protocols as previously described.
(§3) Zebrafish were housed and bred in the AquaCore facility, Monash University, according to standard procedures. Larvae were maintained in E3 media (5mM NaCl, 0.17mM KCl, 0.33 mM CaCl2, 0.33 mM MgSO4, supplemented with 1 x 10 – 5% methylene blue as antimycotic).
(§4) Digital video processing and animal tracking was performed using Ethovision XT ver.16 (Noldus Inc., Wageningen, The Netherlands) using a standardized method as described before.
(§5) All data was averaged across replicate larvae for each treatment and control, respectively, and presented as mean ± SEM. Cumulative distance traveled by larvae was measured by summing the incremental distance moved by each larva between frames of video files. Statistical analysis and data presentation was performed using Prism 8 (GraphPad Software Inc., San Diego, CA, USA). Data sets were tested for outliers and normality of distribution, followed by either one-way or two-way ANOVA testing for significance. […] Where time point data was collected significance was compared for each time domain with that of vehicle controls. Significance was universally set to p < 0.05.

Data set [3] shares this test system. The data set is described as follows: Zebrafish Larval Photo-motor Response (LPR) bioassay. Type of data set: in vivo. Conditions: 1 nM, 10 nM and 100 nM. On the procedure: as §1
Basal behavioral analysis was conducted on zebrafish (Danio rerio) larvae at 5 dpf using an in-house custom-built behavioral analysis system. […]
All data was averaged across replicate larvae for each treatment and control, respectively, and presented as mean ± SEM. Cumulative distance traveled by larvae was measured by summing the incremental distance moved by each larva between frames of video files. […]

The test system is the same in data set [4]. The data set is described as follows: Zebrafish larvae simulated predator response (SPR) bioassay. Type of data set: in vivo. Particulars: for SPR, profile across concentrations: 10 nM; for SPR, total distance moved vs vehicle control: p < 0.0001. How it is done:
as §1, §2, §3, §4, §5

Data set [5] relates to Mediterranean fish species Blennius sphinx. Details: method as in PMID 15018063. Conditions: cited from earlier work.
In the next data set the test system is S. aureus ATCC 25923. Details: method as in PMID 8297426. Particulars: cited from earlier work.
Another data set deals with S. aureus. Details: method as in PMID 8297426. Conditions: tested at 100 µg/mL; cited from earlier work.
The test system of another data set is HIV. Details: method as in earlier work. Conditions: read-out: IC50 against HIV; cited from earlier work.
The mark [6] stands for this setting: ATCC90028, ATCC 90028, read-out: MIC C. albicans.

As usually defined, the MIC is the smallest concentration in the dilution series that meets the test's criterion for growth inhibition. As to `COc1c(Br)cc(CC#N)c(O)c1Br` [Compound 8, 2-(3,5-dibromo-2-hydroxy-4-methoxyphenyl)acetonitrile], the minimal inhibitory concentration (MIC) in data set [1] (setting [6]) was more than 32 µg/mL.
With `COC1(OC)C(Br)=CC(O)(CC(N)=O)C=C1Br` [Compound 6, 2-(3,5-dibromo-1-hydroxy-4,4-dimethoxycyclohexa-2,5-dien-1-yl)acetamide], the “% inhibition C. albicans” value in data set [1] was 0.6% and 4.6%. In addition, the MIC in data set [1] (setting [6]) is more than 32 µg/mL. Also, in data set [2] (10 nM, p < 0.0001), the “Spontaneous swimming, total distance moved vs vehicle control” value (“Spontaneous swimming … vs vehicle control” for short) is recorded as “hyperactivity”. In addition, in data set [2] (100 nM, p < 0.0001), the “Spontaneous swimming, total distance moved” value was “curtailed”.
On to `COC1=C(Br)[C@H](O)[C@@]2(C=C1Br)CC(C(=O)NCCCOc1c(Br)cc(CCNC(=O)C3=NO[C@]4(C=C(Br)C(OC)=C(Br)[C@@H]4O)C3)cc1Br)=NO2` [Compound 5, 11,17-deoxyfistularin-3], for which, in data set [1], the “% inhibition C. albicans” value was determined as 3.3% and the inhibition at 32 µg/mL was found to be 2.5%. Besides, in data set [1] (setting [6]), the MIC was more than 32 µg/mL.
Consider `NC(=O)Cc1c(O)cc(Br)c(O)c1Br` [Compound 9, subereaphenol A], for which, in data set [1] (setting [6]), the MIC is more than 32 µg/mL. Further, in data set [2] (1 nM, 5 dpf larvae, p < 0.0001), the “Spontaneous swimming … vs vehicle control” value is listed as “significant hyperactivity”. Moreover, the “Spontaneous swimming, mean distance moved” value in data set [2] is “reduced mean distance moved”.
With `COC1=C(Br)[C@H](O)[C@@]2(C=C1Br)CC(C(=O)NCCCCNC(=O)C1=NO[C@]3(C=C(Br)C(OC)=C(Br)[C@@H]3O)C1)=NO2` [Compound 2, aerothionin], the “% inhibition C. albicans” value in data set [1] is 0.5% and 4.2%. Further, in data set [1] (setting [6]), the MIC was more than 32 µg/mL. The “LPR, mean area under the curve across light and dark cycles vs vehicle control” value in data set [3] was “biphasic distribution of mean movement data”. In addition, the “SPR, profile across concentrations” value in data set [4] (1 nM, 100 nM) is given as “biphasic distribution of mean movement data”. Also, the “feeding deterrent activity, Blennius sphinx” value in data set [5] is “significant feeding deterrent activity”. Moreover, in data set [2] (1 nM, 10 nM, 100 nM), the “Spontaneous swimming, profile across concentrations” value is reported as “biphasic distribution of mean movement data”. For the same compound, in data set [2] (all three concentrations (1 nM, 10 nM, 100 nM)), the “Spontaneous swimming … vs vehicle control” value is “no significant difference to the vehicle control”.
Turning to `COC1=C(Br)[C@H](O)[C@@]2(C=C1Br)CC(C(=O)NCCCOc1c(Br)cc(CCN)cc1Br)=NO2` [Compound 11, araplysillin I], in data set [1] (setting [6]), the MIC was more than 32 µg/mL.
By pIC50 is commonly meant the IC50 on a negative log10 scale, so that one unit is a factor of ten. As for `COC1=C(Br)[C@H](O)[C@](O)(CC#N)C=C1Br` [Compound 1, (+)-aeroplysinin-1], the “MIC against S. aureus ATCC 25923” value with S. aureus ATCC 25923 is on record as 25 µg/mL (≈ 73.8 µM). Also, in data set [1], the “% inhibition C. albicans” value came to 9.8% and the inhibition at 32 µg/mL came out at 9.5%. The MIC in data set [1] (ATCC90028, read-out: MIC C. albicans) was more than 32 µg/mL. Further, the “inhibition zones in disc diffusion assays against S. aureus” value in the data set on S. aureus is “large inhibition zones”. Moreover, the “LPR, mean area under the curve across light and dark cycles vs vehicle control” value in data set [3] is reported as “reduced hyperactivity at higher concentrations”. In addition, in the data set on HIV, the pIC50 was 4.84. Besides, the “SPR, profile across concentrations” value in data set [4] (1 nM, 100 nM) is reported as “increased hypoactivity with higher concentrations”. In addition, the “SPR, total distance moved vs vehicle control” value in data set [4] (1 nM) was “significant hyperactivity effects”. The “Spontaneous swimming, profile across concentrations” value in data set [2] (1 nM, 10 nM, 100 nM) was “increased hypoactivity with higher concentrations”. Besides, the “Spontaneous swimming … vs vehicle control” value in data set [2] (1 nM, 5 dpf larvae, p < 0.0001) is recorded as “significant hyperactivity effects”. Further, in data set [2], the “Spontaneous swimming, mean distance moved” value is recorded as “reduced mean distance moved”.
`COC1=C(Br)[C@H](O)[C@@]2(C=C1Br)CC(C(=O)NCCCCCNC(=O)C1=NO[C@]3(C=C(Br)C(OC)=C(Br)[C@@H]3O)C1)=NO2` [Compound 3, homoaerothionin]: in data set [1], the “% inhibition C. albicans” value is 6.3% and the inhibition at 32 µg/mL was found to be 3.4%. For the same compound, the MIC in data set [1] (setting [6]) is more than 32 µg/mL. Moreover, in data set [4] (100 nM), the “SPR, total distance moved vs vehicle control” value is recorded as “Clear hyperactivity”. The “Spontaneous swimming, profile across concentrations” value in data set [2] (1 nM, 10 nM, 100 nM) is given as “dose dependent hypoactivity effect”. Further, the “Spontaneous swimming … vs vehicle control” value in data set [2] (1 nM, 5 dpf larvae, p < 0.0001) is reported as “significant hyperactivity”. Also, in data set [2], the “Spontaneous swimming, mean distance moved” value is reported as “reduced mean distance moved”.
